Patent EP0302824A2 (priority 1987, dated 1989)
Read-outs that look alike come from different tables or passages of the source.

How the values were obtained:
[1] = assay type: physicochemical; details: coated maize kernels in 200 ml water, 20°C, 50 rpm
[2] = assay type: physicochemical; details: sand column; 50 mm artificial rainfall in 48 hours; 5 g/kg a.i.
[3] = Sw = solubility in water
[4] = not given; remark: listed apart in the source
[5] = Release of terbufos from coated corn cob granules into buffer; assay type: physicochemical
[6] = Solubility of terbufos in neat surfactants and PEGs, judged by eye
[7] = Time release of terbufos from coated maize seeds into buffer; assay type: physicochemical
[8] = Solubilization of terbufos in individual and combined surfactant solutions; details: for Terbufos Concentration (ppm) Individual Surfactant: maximum 100 ppm terbufos in solution
corn rootworms = assay: Field control of corn rootworms by insecticide/polymer combinations applied to the seed; assay type: in vivo, Diabrotica spp.; details: maize G 4733, 0-6 scale, 63 days after planting
[9] = Solubility of terbufos in water with increasing concentration of surfactant or association polymer

CNC(=O)Oc1cccc2c1OC(C)(C)C2 [carbofuran]
Solubility of Carbofuran, ppm (1000 ppm Alipal EP110): 349 ppm
Solubility of Carbofuran, ppm (1000 ppm Ethomeen T/15): 436 ppm
Solubility of Carbofuran, ppm (1000 ppm Pluronic F68): 287 ppm
Solubility of Carbofuran, ppm (1000 ppm Triton N101): 370 ppm
increase in solubility in surfactant solution over that in water (Ethomeen T/15, 1000 ppm): 30%
Solubility of Carbofuran, ppm (H₂O): 330 ppm
increase in solubility in surfactant solution over that in water (Triton (N101), 1000 ppm): 10%

CCOP(=S)(OCC)Oc1nc(Cl)n(C(C)C)n1 [isazofos]
Released Active Substance in % After 4 Hours Association Polymer 17.1 [1]: 80.8%
Released Active Substance in % After 4 Hours Standard Polymer 18.1 [1]: 63.5%
% a.i. Analyzed in "Traditional" Coats Kernels [2]: 68.2%
% a.i. Analyzed in "Traditional" Coats Leachate [2]: < 0.5%
% a.i. Analyzed in "Traditional" Coats Sand [2]: 22.9%
% a.i. Analyzed in Association Polymer Kernels [2]: 30.1%
% a.i. Analyzed in Association Polymer Leachate [2]: 34.9%
% a.i. Analyzed in Association Polymer Sand [2]: 39.7%
Sw in ppm [3]: 150 ppm
Solubility (ppm) ([4]; isazophos in H₂O): 62 ppm
Solubility (ppm) ([4]; isazophos, 1000 ppm A1, HLB ∼30): 84 ppm
Solubility (ppm) ([4]; isazophos, 1000 ppm A2, HLB ∼30): 58 ppm
Solubility (ppm) ([4]; isazophos, 1000 ppm A4, HLB ∼30): 180 ppm
Solubility (ppm) ([4]; isazophos, 1000 ppm A5, HLB ∼30): 11 ppm
Solubility (ppm) ([4]; isazophos, 1000 ppm AM1): 98 ppm
Solubility (ppm) ([4]; isazophos, 1000 ppm N3, HLB 13.4): 260 ppm
Solubility (ppm) ([4]; isazophos, 1000 ppm N9, HLB 22): 130 ppm
Solubility (ppm) ([4]; isazophos, 1000 ppm N11, HLB 29): 92 ppm
Solubility (ppm) ([4]; isazophos, 1000 ppm N18, HLB 17.3): 130 ppm
Solubility (ppm) ([4]; isazophos, 1000 ppm N24, HLB 15.0): 170 ppm

CCOP(=S)(OCC)SCSC(C)(C)C [terbufos]
Terbufos Concentration (ppm) ([5]; Buffer = 10 ml (Triton = 1000 ppm), 0.5 hours): 61 ppm
Terbufos Concentration (ppm) ([5]; Buffer = 10 ml (Triton = 1000 ppm), 1 hour): 86 ppm
Terbufos Concentration (ppm) ([5]; Buffer = 10 ml (Triton = 1000 ppm), 2 hours): 104 ppm
Terbufos Concentration (ppm) ([5]; Buffer = 10 ml (Triton = 1000 ppm), 3 hours): 81 ppm
Terbufos Concentration (ppm) ([5]; Buffer = 10 ml (Triton = 1000 ppm), 4 hours): 60 ppm
Terbufos Concentration (ppm) ([5]; Buffer = 10 ml (Triton = 1000 ppm), 5 hours): 60 ppm
Terbufos Concentration (ppm) ([5]; Buffer = 20 ml (Triton = 500 ppm), 0.5 hours): 53 ppm
Terbufos Concentration (ppm) ([5]; Buffer = 20 ml (Triton = 500 ppm), 1 hour): 39 ppm
Terbufos Concentration (ppm) ([5]; Buffer = 20 ml (Triton = 500 ppm), 3 hours): 34 ppm
Terbufos Concentration (ppm) ([5]; Buffer = 20 ml (Triton = 500 ppm), 4 hours): 44 ppm
Terbufos Concentration (ppm) ([5]; Buffer = 20 ml (Triton = 500 ppm), 5 hours): 51 ppm
Terbufos Concentration (ppm) ([5]; Buffer = 20 ml (Triton = 500 ppm), 22 hours): 29 ppm
Terbufos Concentration (ppm) ([5]; Buffer = 100 ml (Triton = 100 ppm), 0.25 hours): 2.7 ppm
Terbufos Concentration (ppm) ([5]; Buffer = 100 ml (Triton = 100 ppm), 0.5 hours): 3.2 ppm
Terbufos Concentration (ppm) ([5]; Buffer = 100 ml (Triton = 100 ppm), 1 hour): 3.3 ppm
Terbufos Concentration (ppm) ([5]; Buffer = 100 ml (Triton = 100 ppm), 1.5 hours): 4.3 ppm
Terbufos Concentration (ppm) ([5]; Buffer = 100 ml (Triton = 100 ppm), 2 hours): 4.7 ppm
Terbufos Concentration (ppm) ([5]; Buffer = 100 ml (Triton = 100 ppm), 3 hours): 4.6 ppm
Terbufos Concentration (ppm) ([5]; Buffer = 100 ml (Triton = 100 ppm), 4 hours): 5.9 ppm
Terbufos Concentration (ppm) ([5]; Buffer = 100 ml (Triton = 100 ppm), 5 hours): 5.5 ppm
Terbufos Concentration (ppm) ([5]; Buffer = 100 ml (Triton = 100 ppm), 6 hours): 5.1 ppm
Terbufos Concentration (ppm) ([5]; Buffer = 100 ml (Triton = 100 ppm), 7 hours): 6.7 ppm
Terbufos Concentration (ppm) ([5]; Buffer = 100 ml (Triton = 100 ppm), 28 hours): 7.5 ppm
solubility in neat surfactants (no water present) or polyethylene glycols, judged by eye ([6]; 5 µl terbufos in 200 µl of Cl, C2, C4, C7, Al, N1, N4, N5, N6, N8, N12, N24, N25, N26, PEG 200 or PEG 400): Soluble
solubility in neat surfactants (no water present), judged by eye ([6]; 5 µl terbufos in 200 µl of anionic A2, A3, A5 or A6): Insoluble
Terbufos Concentration (ppm), Time Release from Coated Seeds ([7]; Association Polymer (no PVAc), Buffer pH = 5.6, 0.5 hour): 370 ppm
Terbufos Concentration (ppm), Time Release from Coated Seeds ([7]; Association Polymer (no PVAc), Buffer pH = 5.6, 2 hours): 350 ppm
Terbufos Concentration (ppm), Time Release from Coated Seeds ([7]; Association Polymer (no PVAc), Buffer pH = 5.6, 4 hours): 360 ppm
Terbufos Concentration (ppm), Time Release from Coated Seeds ([7]; Association Polymer+PVAc, Buffer pH 5.6, 0.5 hour): 130 ppm
Terbufos Concentration (ppm), Time Release from Coated Seeds ([7]; Association Polymer+PVAc, Buffer pH 5.6, 2 hours): 147 ppm
Terbufos Concentration (ppm), Time Release from Coated Seeds ([7]; Association Polymer+PVAc, Buffer pH 5.6, 4 hours): 210 ppm
Terbufos Concentration (ppm), Time Release from Coated Seeds ([7]; Association Polymer+PVAc, Buffer pH 5.6, 26 hours): 163 ppm
Terbufos Concentration (ppm), Time Release from Coated Seeds ([7]; Association Polymer+PVAc, Buffer pH 5.6, 69.5 hours): 122 ppm
Terbufos Concentration (ppm), Time Release from Coated Seeds ([7]; Association Polymer+PVAc, Buffer pH 8.3, 0.5 hour): 210 ppm
Terbufos Concentration (ppm), Time Release from Coated Seeds ([7]; Association Polymer+PVAc, Buffer pH 8.3, 2 hours): 240 ppm
Terbufos Concentration (ppm), Time Release from Coated Seeds ([7]; Association Polymer+PVAc, Buffer pH 8.3, 4 hours): 260 ppm
Terbufos Concentration (ppm), Time Release from Coated Seeds ([7]; Association Polymer+PVAc, Buffer pH=3.3, 2 hours): 22 ppm
Terbufos Concentration (ppm), Time Release from Coated Seeds ([7]; Association Polymer+PVAc, Buffer pH=3.3, 4 hours): 7.6 ppm
Terbufos Concentration (ppm), Time Release from Coated Seeds ([7]; PVAc, Buffer pH=5.6, 4 hours): 1.9 ppm
Terbufos Concentration (ppm), Time Release from Coated Seeds ([7]; PVAc, Buffer pH=5.6, 26 hours): 2.4 ppm
Terbufos Concentration (ppm) Individual Surfactant ([8]; A2, 1000 ppm): 2.0 ppm
Terbufos Concentration (ppm) Combination Surfactant With C2 ([8]; A2 with C2, 5 ml portions (1000 ppm) of each, maximum 100 ppm): 38 ppm
Terbufos Concentration (ppm) Combination Surfactant With N3 ([8]; A2 with N3, 5 ml portions (1000 ppm) of each, maximum 100 ppm): 13 ppm
Terbufos Concentration (ppm) Individual Surfactant ([8]; A4, 1000 ppm): 3.4 ppm
Terbufos Concentration (ppm) Combination Surfactant With N3 ([8]; A4 with N3, 5 ml portions (1000 ppm) of each, maximum 100 ppm): 28 ppm
Terbufos Concentration (ppm) Individual Surfactant ([8]; C2, 1000 ppm): 12 ppm
Terbufos Concentration (ppm) Combination Surfactant ([8]; C2 with N3, 5 ml portions (1000 ppm) of each, maximum 100 ppm): 64 ppm
Terbufos Concentration (ppm) Individual Surfactant ([8]; N3, 1000 ppm): 65 ppm
Terbufos Concentration (ppm) Individual Surfactant ([8]; N7, 1000 ppm): 1.1 ppm
Terbufos Concentration (ppm) Combination Surfactant With C2 ([8]; N7 with C2, 5 ml portions (1000 ppm) of each, maximum 100 ppm): 6.7 ppm
Terbufos Concentration (ppm) Combination Surfactant With N3 ([8]; N7 with N3, 5 ml portions (1000 ppm) of each, maximum 100 ppm): 54 ppm
Terbufos Concentration (ppm) Individual Surfactant ([8]; N8, 1000 ppm): 1.2 ppm
Terbufos Concentration (ppm) Combination Surfactant With C2 ([8]; N8 with C2, 5 ml portions (1000 ppm) of each, maximum 100 ppm): 39 ppm
Terbufos Concentration (ppm) Combination Surfactant With N3 ([8]; N8 with N3, 5 ml portions (1000 ppm) of each, maximum 100 ppm): 40 ppm
Terbufos Concentration (ppm) Individual Surfactant ([8]; N10, 1000 ppm): 0.7 ppm
Terbufos Concentration (ppm) Combination Surfactant With C2 ([8]; N10 with C2, 5 ml portions (1000 ppm) of each, maximum 100 ppm): 36 ppm
Terbufos Concentration (ppm) Combination Surfactant With N3 ([8]; N10 with N3, 5 ml portions (1000 ppm) of each, maximum 100 ppm): 38 ppm
Terbufos Concentration (ppm) Individual Surfactant ([8]; N11, 1000 ppm): 0.5 ppm
Terbufos Concentration (ppm) Combination Surfactant With C2 ([8]; N11 with C2, 5 ml portions (1000 ppm) of each, maximum 100 ppm): 9.5 ppm
Terbufos Concentration (ppm) Combination Surfactant With N3 ([8]; N11 with N3, 5 ml portions (1000 ppm) of each, maximum 100 ppm): 24 ppm
Ratings for corn rootworm damage (corn rootworms; Granule, 0.1 g m⁻¹): 2.2
Ratings for corn rootworm damage (corn rootworms; seed treatment Association Polymer, 10 g/kg): 2.6
Ratings for corn rootworm damage (corn rootworms; seed treatment PVAc/PVAl, 10 g/kg): 3.1
Ratings for corn rootworm damage (corn rootworms; seed treatment PVAc/PVAl, 30 g/kg): 2.8
terbufos concentration ([9]; 575 ppm surfactant a) (N3, Triton N101)): 64 ppm
terbufos concentration ([9]; 603 ppm surfactant portion b) (half of 1206 ppm 1:1 association polymer PA 5000:N3)): 52 ppm
